According to patent US20070248597A1, “Methods of decreasing vascular calcification using IL-1 inhibitors” (priority 2005, published 2007):

What was measured:
Format in all cases: in vivo, rat
5/6 nx uremic rats = test: Aortic calcification (Von Kossa, pathologist score) in 5/6-nephrectomy model of CKD and secondary HPT; details: for aortic calcification severity (Von Kossa calcification score): 5/6Nx male SD rats, uremia established 8 weeks, treatment week 4, Fc-IL-1ra 100 mg/kg/day s.c., calcitriol 30 ng
Text: We administered the IL-1 receptor antagonist Fc-IL-1ra, calcitriol, the combination of Fc-IL-1ra+calcitriol) or their corresponding vehicles to a rodent animal model of chronic kidney disease (CKD) and secondary hyperparathyroidism (SHPT) induced by subtotal nephrectomy (5/6Nx). The experimental paradigm is shown in FIG. 5, with the treatment groups set out in Table 2 below.
Aortas were removed at treatment week 4 (trt wk4), fixed and stained for mineralization (Von Kossa) and the severity determined and scored by a pathologist blinded to the treatments (Calcification Scores: 0=no calcification; 1=minimal; 2=mild; 3=moderate; 4=marked; 5=severe).

[1] = tested on: adenine-induced CKD/SHPT rats; test: Aortic vascular calcification (bone mineral density of isolated aortas, Dxa scanner) in adenine model of CKD/SHPT
Procedure: (§1) Adenine, included as a dietary supplement (0.75%), was fed to adult, male Sprague-Dawley rats. Blood for chemistry analyses (total serum calcium, phosphorous, blood urea nitrogen [BUN], creatinine, PTH) was collected before and again on drug treatment days 0 (pretreatment) and 21 from the retro-orbital sinus of anesthetized rats. Blood (0.5 ml) was collected for PTH levels into SST (clot activator) brand blood tubes and allowed to clot. Serum was removed and stored at −70° C. until assayed. PTH levels were quantified according to the vendor's instructions using rat PTH (1-34) immunoradiometric assay kit (Immutopics, San Clemente, Calif.). Calcium and phosphorous were measured using a blood chemistry analyzer (AU 400; Olympus, Melville, N.Y.).
Vascular calcification was assessed by quantifying the bone mineral density from fixed (formalin, PBS), isolated aortas using a Dxa scanner (Piximus densitomer, GE Healthcare).

[2] = tested on: adenine-induced CKD/SHPT rats; test: Blood chemistry (BUN, creatinine, PTH) in adenine model of CKD/SHPT
Procedure: as §1

[3] = tested on: adenine-induced CKD/SHPT rats; test: Parathyroid gland size in adenine model of CKD/SHPT; details: FIG. 3A, p=0.009 vs A5S vehicle (n=13 vs n=8)

Molecule	aortic calcification severity (Von Kossa calcification score) (5/6 nx uremic rats)	incidence of severe calcification (5/6 nx uremic rats; 5/6Nx uremic rats, treatment week 4, n=8 evaluated) [%]	bone mineral density (aortic calcification) ([1]; adenine diet 0.75%, male Sprague-Dawley rats, Fc-IL-1ra n=7 vs A5S vehicle n=4, p=0.005 unpaired t-test) [g/cm2]	development of aortic vascular calcification (bone mineral density content of the aorta) ([1]; adenine model, FIG. 2)	animals with no calcification ([1]; adenine model, Fc-IL-1ra-treated animals)	BUN [2]	creatinine levels [2]	serum PTH levels ([2]; FIG. 3B, p=0.028 vs A5S vehicle (n=7 vs n=4))	calcitriol (Vitamin D3)-induced aortic vascular calcification (5/6 nx uremic rats; 5/6Nx rats, Fc-IL-1ra 100 mg/kg/day s.c. + calcitriol 30 ng, week 4, FIG. 6)	size of the parathyroid gland [3]
C=C1/C(=C\C=C2/CCC[C@]3(C)[C@@H]([C@H](C)CCCC(C)(C)O)CC[C@@H]23)C[C@@H](O)C[C@@H]1O [calcitriol, 1α, 25-dihydroxycholecalciferol, reference compound]	marked to severe	50	–	–	–	–	–	–	–	–
Fc-IL-1ra: molecule having the sequence shown in FIG. 4 (SEQ ID NO: 1); fusion protein comprising IL-1ra; IL-1 receptor antagonist	did not cause vascular calcification	–	0	prevented	seven of seven	did not affect	did not affect	decreased	attenuated	reduced
